Results published in PubChem BioAssay AID1963834 (Molecular Pharmacology Branch, DTP, NCI, 2024).
pIC50: −log10 of the molar value.

Test system: 873145-292-R-J1-PDC complex spheroid viability
Assay: Anticancer human tumor 873145-292-R-J1-PDC patient-derived renal clear cell carcinoma cell line growth inhibition [POLQ]
Conditions: for pIC50: curve of first compound; for viability, T/C: stronger effect = lower value
Method in brief: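 Patient-derived tumour cells were co-cultured with HUVEC and mesenchymal stem cells as multicellular spheroids at 37 °C. They were treated with POLQ inhibitors (novobiocin, ART-558, RP6685) alone or combined with other agents. Top concentrations were at or near clinical Cmax (otherwise 10 microM; SN-38 at 1 microM), decreasing in half-log steps.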

[1] = second compound 0.0316 µM, first compound 0.0316 µM
[2] = second compound 0.0316 µM, first compound 0.1 µM
[3] = second compound 0.0316 µM, first compound 0.316 µM
[4] = second compound 0.0316 µM, first compound 1 µM
[5] = second compound 0.1 µM, first compound 0.0316 µM
[6] = second compound 0.1 µM, first compound 0.1 µM
[7] = second compound 0.1 µM, first compound 0.316 µM
[8] = second compound 0.1 µM, first compound 1 µM
[9] = second compound 0.316 µM, first compound 0.0316 µM
[10] = second compound 0.316 µM, first compound 0.1 µM
[11] = second compound 0.316 µM, first compound 0.316 µM
[12] = second compound 0.316 µM, first compound 1 µM
[13] = second compound 1 µM, first compound 0.0316 µM
[14] = second compound 1 µM, first compound 0.1 µM
[15] = second compound 1 µM, first compound 0.316 µM
[16] = second compound 1 µM, first compound 1 µM
[17] = second compound 3.16 µM, first compound 0.0316 µM
[18] = second compound 3.16 µM, first compound 0.1 µM
[19] = second compound 3.16 µM, first compound 0.316 µM
[20] = second compound 3.16 µM, first compound 1 µM
[21] = second compound 10 µM, first compound 0.0316 µM
[22] = second compound 10 µM, first compound 0.1 µM
[23] = second compound 10 µM, first compound 0.316 µM
[24] = second compound 10 µM, first compound 1 µM
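Further: spheroids exposed to compounds for 7 days before viability readout.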
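Wherever viability, T/C is given: luminescence signal used as surrogate for viable cell content; 100% = DMSO vehicle control viability.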

## CNCc1ccc(-c2[nH]c3cc(F)cc4c3c2CCNC4=O)cc1 + Cc1cccc(N(C)C(=O)C2C(O)CCN2c2nc(C)cc(C(F)(F)F)c2C#N)c1
Second compound 0.0316 µM
  pIC50: < 5.00
Second compound 0.1 µM
  pIC50: < 5.00
Second compound 0.316 µM
  pIC50: < 5.00
Second compound 1 µM
  pIC50: < 5.00
Second compound 3.16 µM
  pIC50: < 5.00
Second compound 10 µM
  pIC50: < 5.00
[1]
  viability, T/C: 93.1%
[2]
  viability, T/C: 111%
[3]
  viability, T/C: 96.6%
[4]
  viability, T/C: 96.4%
Second compound 0.0316 µM, first compound 3.16 µM
  viability, T/C: 110%
Second compound 0.0316 µM, first compound 10 µM
  viability, T/C: 96.2%
[5]
  viability, T/C: 110%
[6]
  viability, T/C: 94.1%
[7]
  viability, T/C: 89.5%
[8]
  viability, T/C: 91.8%
Second compound 0.1 µM, first compound 3.16 µM
  viability, T/C: 108%
Second compound 0.1 µM, first compound 10 µM
  viability, T/C: 99.9%
[9]
  viability, T/C: 111%
[10]
  viability, T/C: 101%
[11]
  viability, T/C: 99%
[12]
  viability, T/C: 91.3%
Second compound 0.316 µM, first compound 3.16 µM
  viability, T/C: 97.5%
Second compound 0.316 µM, first compound 10 µM
  viability, T/C: 111%
[13]
  viability, T/C: 99.5%
[14]
  viability, T/C: 102%
[15]
  viability, T/C: 99.1%
[16]
  viability, T/C: 109%
Second compound 1 µM, first compound 3.16 µM
  viability, T/C: 101%
Second compound 1 µM, first compound 10 µM
  viability, T/C: 95.9%
[17]
  viability, T/C: 102%
[18]
  viability, T/C: 91%
[19]
  viability, T/C: 97.6%
[20]
  viability, T/C: 87.9%
Second compound 3.16 µM, first compound 3.16 µM
  viability, T/C: 101%
Second compound 3.16 µM, first compound 10 µM
  viability, T/C: 107%
[21]
  viability, T/C: 88.6%
[22]
  viability, T/C: 90.4%
[23]
  viability, T/C: 106%
[24]
  viability, T/C: 88.8%
Second compound 10 µM, first compound 3.16 µM
  viability, T/C: 106%
Second compound 10 µM, first compound 10 µM
  viability, T/C: 94.5%

## COc1cccc(OCCCN)c1-c1cc(Nc2cnc(C#N)cn2)n[nH]1 + Cc1cccc(N(C)C(=O)C2C(O)CCN2c2nc(C)cc(C(F)(F)F)c2C#N)c1
Second compound 0.0316 µM
  pIC50: < 6.00
Second compound 0.1 µM
  pIC50: < 6.00
Second compound 0.316 µM
  pIC50: < 6.00
Second compound 1 µM
  pIC50: < 6.00
Second compound 3.16 µM
  pIC50: < 6.00
Second compound 10 µM
  pIC50: < 6.00
Second compound 0.0316 µM, first compound 0.00316 µM
  viability, T/C: 102%
Second compound 0.0316 µM, first compound 0.01 µM
  viability, T/C: 111%
[1]
  viability, T/C: 77.8%
[2]
  viability, T/C: 69.7%
[3]
  viability, T/C: 74.8%
[4]
  viability, T/C: 78.3%
Second compound 0.1 µM, first compound 0.00316 µM
  viability, T/C: 104%
Second compound 0.1 µM, first compound 0.01 µM
  viability, T/C: 103%
[5]
  viability, T/C: 65.9%
[6]
  viability, T/C: 73.7%
[7]
  viability, T/C: 66.5%
[8]
  viability, T/C: 82.1%
Second compound 0.316 µM, first compound 0.00316 µM
  viability, T/C: 95.5%
Second compound 0.316 µM, first compound 0.01 µM
  viability, T/C: 91.5%
[9]
  viability, T/C: 72.7%
[10]
  viability, T/C: 73.9%
[11]
  viability, T/C: 75.6%
[12]
  viability, T/C: 83%
Second compound 1 µM, first compound 0.00316 µM
  viability, T/C: 98.2%
Second compound 1 µM, first compound 0.01 µM
  viability, T/C: 90.3%
[13]
  viability, T/C: 77.5%
[14]
  viability, T/C: 70.8%
[15]
  viability, T/C: 81.8%
[16]
  viability, T/C: 79.1%
Second compound 3.16 µM, first compound 0.00316 µM
  viability, T/C: 98.9%
Second compound 3.16 µM, first compound 0.01 µM
  viability, T/C: 91.7%
[17]
  viability, T/C: 84.7%
[18]
  viability, T/C: 82.3%
[19]
  viability, T/C: 67.7%
[20]
  viability, T/C: 77.3%
Second compound 10 µM, first compound 0.00316 µM
  viability, T/C: 88.1%
Second compound 10 µM, first compound 0.01 µM
  viability, T/C: 93.6%
[21]
  viability, T/C: 91.2%
[22]
  viability, T/C: 74.7%
[23]
  viability, T/C: 88.6%
[24]
  viability, T/C: 91.8%
